Test results: US20180231561A1, “METHODS FOR TREATING SOLID TUMORS AND THE USE OF BIOMARKERS AS A PREDICTOR OF CLINICAL SENSITIVITY TO IMMUNOMODULATORY THERAPIES” (CELGENE CORPORATION, priority 2015, published 2018)
pIC50: −log10 of the molar value. “Also recorded” adds a separate entry of the source. Where a SMILES comes first, the peptide text is derived from it. The star is where a group is joined. Cbz = O=C(OCc1ccccc1)*

Tests used:
CRBN [1] = molecular target: CRBN (Homo sapiens, UniProt Q96SW2); conditions: in vitro; cited from earlier work
Sequence of CRBN (Homo sapiens, UniProt Q96SW2) (Q96SW2 whole entry, species assumed): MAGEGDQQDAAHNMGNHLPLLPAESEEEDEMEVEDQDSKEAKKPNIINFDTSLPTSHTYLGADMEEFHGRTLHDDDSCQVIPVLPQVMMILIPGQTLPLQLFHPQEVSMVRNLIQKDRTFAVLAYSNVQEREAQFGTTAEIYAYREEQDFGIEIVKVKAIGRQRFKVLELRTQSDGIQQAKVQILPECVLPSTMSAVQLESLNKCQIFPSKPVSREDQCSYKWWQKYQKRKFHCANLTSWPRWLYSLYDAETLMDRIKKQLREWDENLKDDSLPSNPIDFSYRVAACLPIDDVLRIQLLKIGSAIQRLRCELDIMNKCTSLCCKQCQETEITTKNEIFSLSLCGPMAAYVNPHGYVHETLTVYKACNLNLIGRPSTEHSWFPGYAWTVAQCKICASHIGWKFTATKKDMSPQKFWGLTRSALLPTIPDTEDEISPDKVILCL
Sequence of CRBN (Homo sapiens, UniProt Q96SW2) (Q16531 whole entry partner, species assumed): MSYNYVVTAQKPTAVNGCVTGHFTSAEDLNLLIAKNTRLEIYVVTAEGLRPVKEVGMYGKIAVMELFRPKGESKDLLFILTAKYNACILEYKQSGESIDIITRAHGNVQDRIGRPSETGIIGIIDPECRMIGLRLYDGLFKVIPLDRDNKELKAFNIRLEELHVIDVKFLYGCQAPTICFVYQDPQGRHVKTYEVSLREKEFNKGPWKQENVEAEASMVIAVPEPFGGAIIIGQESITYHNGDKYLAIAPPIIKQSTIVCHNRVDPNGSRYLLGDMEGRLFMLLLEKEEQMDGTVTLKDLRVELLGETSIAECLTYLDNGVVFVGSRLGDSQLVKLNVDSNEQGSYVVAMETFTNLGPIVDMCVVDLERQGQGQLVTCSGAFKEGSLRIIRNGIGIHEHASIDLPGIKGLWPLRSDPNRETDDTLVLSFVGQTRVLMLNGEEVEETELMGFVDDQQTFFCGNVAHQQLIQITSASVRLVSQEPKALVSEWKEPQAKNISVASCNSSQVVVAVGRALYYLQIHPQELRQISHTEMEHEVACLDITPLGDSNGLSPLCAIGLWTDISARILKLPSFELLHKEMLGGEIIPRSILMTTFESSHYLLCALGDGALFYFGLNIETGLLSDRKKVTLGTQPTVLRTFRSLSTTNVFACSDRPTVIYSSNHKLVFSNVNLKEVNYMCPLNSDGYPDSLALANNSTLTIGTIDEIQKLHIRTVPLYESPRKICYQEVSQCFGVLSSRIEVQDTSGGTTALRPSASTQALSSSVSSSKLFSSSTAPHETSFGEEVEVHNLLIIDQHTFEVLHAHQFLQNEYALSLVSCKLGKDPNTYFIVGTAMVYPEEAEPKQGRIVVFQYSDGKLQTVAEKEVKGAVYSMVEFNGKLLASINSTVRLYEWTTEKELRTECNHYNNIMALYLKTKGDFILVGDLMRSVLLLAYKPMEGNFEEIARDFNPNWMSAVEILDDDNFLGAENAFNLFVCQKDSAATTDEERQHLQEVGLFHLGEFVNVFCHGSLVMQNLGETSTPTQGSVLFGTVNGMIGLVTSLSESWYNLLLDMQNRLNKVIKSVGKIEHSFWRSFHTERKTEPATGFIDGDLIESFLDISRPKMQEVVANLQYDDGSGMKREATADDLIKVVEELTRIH
Sequence of CRBN (Homo sapiens, UniProt Q96SW2) (Q13619 whole entry partner, species assumed): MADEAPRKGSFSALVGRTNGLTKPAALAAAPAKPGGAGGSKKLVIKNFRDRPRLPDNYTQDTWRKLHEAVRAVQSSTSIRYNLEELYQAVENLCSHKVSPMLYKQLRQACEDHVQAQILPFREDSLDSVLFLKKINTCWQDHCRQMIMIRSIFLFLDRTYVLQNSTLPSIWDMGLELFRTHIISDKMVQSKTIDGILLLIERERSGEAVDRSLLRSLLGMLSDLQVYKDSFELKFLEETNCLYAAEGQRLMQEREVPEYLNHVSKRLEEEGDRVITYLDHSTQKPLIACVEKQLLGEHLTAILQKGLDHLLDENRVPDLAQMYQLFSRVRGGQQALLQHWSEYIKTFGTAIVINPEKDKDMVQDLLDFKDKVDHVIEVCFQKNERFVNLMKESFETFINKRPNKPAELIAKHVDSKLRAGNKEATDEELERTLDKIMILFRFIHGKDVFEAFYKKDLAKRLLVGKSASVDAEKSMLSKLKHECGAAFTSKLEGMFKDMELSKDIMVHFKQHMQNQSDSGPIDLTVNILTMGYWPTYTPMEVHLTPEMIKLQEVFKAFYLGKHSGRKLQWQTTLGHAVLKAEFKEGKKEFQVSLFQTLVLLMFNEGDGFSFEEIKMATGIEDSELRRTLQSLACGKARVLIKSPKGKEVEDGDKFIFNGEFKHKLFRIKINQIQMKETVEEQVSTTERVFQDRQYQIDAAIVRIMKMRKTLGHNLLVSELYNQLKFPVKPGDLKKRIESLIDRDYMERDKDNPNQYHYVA
Sequence of CRBN (Homo sapiens, UniProt Q96SW2) (P62877 whole entry partner, species assumed): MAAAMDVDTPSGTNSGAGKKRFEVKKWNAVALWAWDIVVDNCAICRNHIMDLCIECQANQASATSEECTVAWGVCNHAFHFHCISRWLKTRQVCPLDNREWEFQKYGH

ZFP91 [2] = test: Western blot of ZFP91 protein level in HCC cell lines Focus and JHH4; assay type: cell-based; conditions: for effect on Compound A-induced ZFP91 degradation: Focus and JHH4, 2D, 10 μM for 1 hour, then 5 μM Compound A for 6 hours
Experimental: (§1) Both HCC cells, Focus and JHH4 in 3D setting, were cultured continuously for 15 days treated with either DMSO or Compound A, or were first cultured for about 7 days prior to treatment with either DMSO or Compound A for 24 hours or 72 hours. Cells were harvested and proteins were prepared from the cells for proteomics analysis. The growth of the cells on control plates was also analyzed. In particular, cells were plated in media containing either DMSO or Compound A. Cells were cultured for certain time, and then were harvested onto filter plates. After the plates have dried, scintillation fluid was added to the plates and read on a Top-count reader.
Focus cells were cultured for 18 days either continuously for 18 days in the medium containing DMSO, Compound A, or Compound B, or cultured for 7 days prior to treating with DMSO, Compound A, or Compound B for 11 days. Then cells were harvested and were treated in 200 μl cold cell lysis buffer (1% Triton X-100 from Cell Signaling supplemented with protease inhibitors and phophatase inhibitors from Roche) to generate cell lysate. Proteins from cell lysate were separated by 4-12% nupage gels (Invitrogen) and transferred to nitrocellulose membranes. Immunoblots were then probed with antibodies recognizing CRBN, ZFP91 (LSBio) and β-actin (Li-Cor). Signals were detected with a Li-Cor Odyssey Imager. As shown, the level of ZFP91 reduced in response to treatment with Compound A or Compound B.
(§2) HCC cells from both Focus and JHH4 cell lines in 2D setting treated with Compound A for 6 hours, 24 hours, and 72 hours, and JHH4 cells in 3D setting treated with Compound A for 15 days were also analyzed by western blot. Cells were harvested and were treated in 200 μl cold cell lysis buffer (1% Triton X-100 from Cell Signaling supplemented with protease inhibitors and phophatase inhibitors from Roche) to generate cell lysate. Proteins from cell lysate were separated by 4-12% Nupage gels (Invitrogen) and transferred to nitrocellulose membranes. Immunoblots were then probed with antibodies recognizing CRBN, ZFP91 (LSBio), P-TBK1, and β-actin (Li-Cor). Signals were detected with a Li-Cor Odyssey Imager. As shown, the level of ZFP91 reduced in response to treatment with Compound A for 6 hours, 24 hours, or 72 hours in both cell lines in 2D setting. […] The level of CRBN increased in response to treatment with Compound A for 6 hours, 24 hours, or 72 hours in both cell lines in 2D setting. […] ZFP91 degradation induced by various doses of Compound A for various time periods was also tested in both Focus and JHH4 cells, as shown in FIG. 4C.
HCC cells from both Focus and JHH4 cell lines in 2D setting were first treated with 10 μM MG132 or MLN4924 for 1 hour, and then were treated with 5 μM DMSO or 5 μM Compound A for 6 hours. Cells were harvested and were treated in cell lysis buffer to generate cell lysate. Proteins from cell lysate were separated by gel electrophoresis and transferred to nitrocellulose membranes. Immunoblots were then probed with antibodies recognizing CRBN, ZFP91 (LSBio), and β-actin (Li-Cor). The results were shown in FIG. 5A, and as shown, both […] or MLN4924 inhibited ZFP91 degradation. MG132 activates c-Jun N-terminal kinase (JNK1), which initiates apoptosis. […] MLN4924 is a NAE1 inhibitor that blocks the activity of Cullin Ring Ligases (CRLs), such as CRL4CRBN.

ZFP91 [3] = test: Western blot of ZFP91 level in Hep3B cells; assay type: cell-based, human
Experimental: The change of ZFP91 level in response to Compound A or Compound B treatments was also evaluated in human hepatoma Hep3B cell lines. Hep3B cells were treated with Compound A or Compound B, and cells were harvested and treated in lysis buffer to generate cell lysate. Proteins from cell lysate were separated by electrophoresis gel and transferred to nitrocellulose membranes. Immunoblots were then probed with antibodies recognizing CRBN, ZFP91, and β-actin. Signals were detected with a Li-Cor Odyssey Imager. The results were shown in the upper panel of FIG. 6A. […] Thus, ZFP91 may be degraded in response treatment compounds regardless of growth response of the cells to the treatment compounds.

ZFP91 [4] = test: Western blot of ZFP91 level in glioblastoma cell lines U87 and SNB19; assay type: cell-based, human; conditions: U87 and SNB19 cells
Experimental: The change of ZFP91 level in response to treatment compounds was evaluated in other solid tumor cell lines, e.g., glioblastoma (GBM) cell lines. […] Proteins from cell lysate were separated by electrophoresis gel and transferred to nitrocellulose membranes. Immunoblots were then probed with antibodies recognizing ZFP91 and β-actin. Signals were detected with a Li-Cor Odyssey Imager.

NF-κB = conditions: read-out: IC50 NF-κB activation; cited from earlier work
Hep3B cells = test: Growth response of Hep3B cells to treatment compounds (FIG. 6B); assay type: cell-based, human
ZFP91 [5] = test: Western blot of ZFP91 protein level in HCC cell lines Focus and JHH4; assay type: cell-based; conditions: for effect of the compound on ZFP91 after knocking down of CRBN: CRBN knockdown, Focus and JHH4 cells
[6] = test system: HCC xenografts (excised xenograft tumors of HAK-1AJ and Focus); test: Proteomic screening (TMT) of HCC xenografts treated with DMSO or Compound A; assay type: cell-based
Experimental: HCC xenografts (excised xenograft tumors of HAK-1AJ and Focus) were treated with either with DMSO, or Compound A for either once (single) or multiple times. Cells were harvested at 24 or 72 hours time points, and proteins were fractionated using a basic pH reverse gradient method. Fractionated samples were labeled using a Tandem Mass Tag (TMT) method. Relative abundance was calculated.

JHH4 cell line = test: Proteomic screening in JHH4 cell line under 3D culture; assay type: cell-based
Experimental: as §1

FOCUS cell line = test: Proteomic screening in FOCUS cell line under 3D culture; assay type: cell-based; conditions: 3D conditions
Experimental: as §1

[7] = test system: MST1R (RON), PARP4, MVP, ZFP91, IKBKE, PDE6D, CK1alpha, LGALS2, KAT1, GSPT1, CRBN; test: Western blot confirmation of proteins identified in the proteomic studies (FIG. 8); assay type: cell-based
From the text: Representative proteins identified in the proteomic studies were confirmed in western blot analysis, such as those shown in FIG. 8.

CRBN [8] = test: Western blot of CRBN protein level in HCC cell lines Focus and JHH4; assay type: cell-based
Experimental: as §2, with “Both HCC cells, Focus and JHH4 in 3D setting, were cultured continuously for 15 days treated with either DMSO or Compound A, or were first cultured for about 7 days prior to treatment with either DMSO or Compound A for 24 hours or 72 hours. Cells were harvested and proteins were prepared from the cells for proteomics analysis. The growth of the cells on control plates was also analyzed. In particular, cells were plated in media containing either DMSO or Compound A. Cells were cultured for certain time, and then were harvested onto filter plates. After the plates have dried, scintillation fluid was added to the plates and read on a Top-count reader. HCC” for “HCC”

P-TBK1 = test: Western blot of P-TBK1 in HCC cells; assay type: cell-based; conditions: 3D setting
Experimental: as §2

U87 tumor = test: U87 xenograft tumor growth; assay type: in vivo; conditions: 3 and 30 mg/kg qd
ZFP91 [9] = test: Immunostaining of ZFP91 in U87 xenograft tissue; assay type: in vivo
Focus cells = test: Colony growth on control plates, 3D Focus cells; assay type: cell-based; conditions: vs DMSO
JHH4 cells = test: Colony growth on control plates, 3D JHH4 cells; assay type: cell-based; conditions: 3D JHH4, control plates, vs DMSO
[10] = Focus cells, 18 days continuous, or 7 days culture then 11 days treatment
[11] = Focus and JHH4, 2D setting, 6 hours, 24 hours or 72 hours
[12] = Focus and JHH4, 3D, control plate and proteomic preparation, beta-actin control

## O=C1CCC(N2C(=O)c3ccccc3C2=O)C(=O)N1 (centres unmarked) [thalidomide, 2-(2,6-dioxopiperidin-3-yl)-1H-isoindole-1,3(2H)-dione]
CRBN [1]
  auto-ubiquitination of CRBN: inhibit

## CC(C)C[C@@H](C=O)NC(=O)[C@H](CC(C)C)NC(=O)[C@H](CC(C)C)NC(=O)OCc1ccccc1 [MG132, reference compound] (Cbz-Leu-Leu-Leu-aldehyde)
ZFP91 [2]
  effect on Compound A-induced ZFP91 degradation: inhibited; also recorded: block
ZFP91 [3]
  effect on reduction of ZFP91 by Compound A or Compound B: blocked
ZFP91 [4]
  effect on reduction of ZFP91 by treatment compounds: blocked
NF-κB
  pIC50: 5.52

## O=C1CCC(N2Cc3c(OCc4ccc(CN5CCOCC5)cc4)cccc3C2=O)C(=O)N1 (centres unmarked) [Compound B, 3-[4-(4-Morpholin-4-ylmethyl-benzyloxy)-1-oxo-1,3-dihydro-isoindol-2-yl]-piperidine-2,6-dione]
ZFP91 [2]; [10]
  level of ZFP91: reduces
ZFP91 [3]
  ZFP91 level: down-regulated
Hep3B cells
  sensitivity of Hep3B cells to the compound: sensitive
ZFP91 [5]
  effect of the compound on ZFP91 after knocking down of CRBN: reversed

## NS(=O)(=O)OC[C@@H]1C[C@@H](n2ccc3c(N[C@H]4CCc5ccccc54)ncnc32)C[C@@H]1O [MLN4924, reference compound]
ZFP91 [2]
  effect on Compound A-induced ZFP91 degradation: inhibited
ZFP91 [2]; listed as MLN
  effect on Compound A-induced ZFP91 degradation: block
ZFP91 [3]
  effect on reduction of ZFP91 by Compound A or Compound B: blocked
ZFP91 [4]
  effect on reduction of ZFP91 by treatment compounds: blocked

## Cc1nc2cccc(N)c2c(=O)n1C1CCC(=O)NC1=O (centres unmarked) [Compound A, 3-(5-amino-2-methyl-4-oxo-4H-quinazolin-3-yl)-piperidine-2,6-dione]
[6]; 24 hours after treatment, both Focus and HAK-1AJ, compared with DMSO
  proteins commonly differentially abundant after treatment: WIBG, KAT1, Nestin, PARP4, and MVP
[6]; proteomic screening study
  proteins downregulated in response to treatment: MVP, PARP4, ZFP91, and ZNF198
  proteins upregulated in response to treatment: Nestin, KAT1/CCBL1, and WIBG; also recorded: Nestin, KAT1/CCBL1, WIBG, CK1-alpha, GSPT1
JHH4 cell line; JHH4, 3D conditions
  regulation of the proteins listed in Table 5: downregulated
JHH4 cell line; JHH4, 3D culture, basement membrane extracellular matrix
  regulation of the proteins listed in Table 3: upregulated
FOCUS cell line
  regulation of the proteins listed in Table 4: upregulated
  regulation of the proteins listed in Table 6: downregulated
[7]
  proteins whose levels increased in response to treatment: CK1alpha, LGALS2, KAT1, GSPT1 as well as CRBN
  proteins whose levels reduced in response to treatment: MST1R (RON), RARP4, MVP, ZFP91, IKBKE, PDE6D
ZFP91 [2]; [11]
  level of ZFP91: reduces
ZFP91 [2]; [12]
  level of ZFP91 protein: reduced
ZFP91 [2]; [10]
  level of ZFP91: reduces
ZFP91 [2]; JHH4, 3D setting, 15 days
  level of ZFP91: reduced
CRBN [8]; [11]
  level of CRBN: increases
CRBN [8]; [12]
  level of CRBN protein: increased
CRBN [8]; JHH4, 3D setting, 15 days
  level of CRBN: increased
P-TBK1
  P-TBK1 level: upregulated
ZFP91 [3]
  ZFP91 level: down-regulated
ZFP91 [4]
  ZFP91 level: down-regulated
Hep3B cells
  sensitivity of Hep3B cells to the compound: not
U87 tumor
  U87 tumor growth: significantly inhibits
ZFP91 [9]
  ZFP91 in U87 xenograft tissue: degrades
Focus cells
  colony number: reduced
  total colony area: reduced
JHH4 cells
  colony number: reduced
  total colony area: reduced
ZFP91 [5]
  effect of the compound on ZFP91 after knocking down of CRBN: reversed
ZFP91 [5]; Focus and JHH4 cells treated with 100 ug/ml cycloheximide (CHX)
  level of ZFP91 under protein synthesis inhibition: decreased; also recorded: accelerates
